The text below walks through data of US20160058829A1, “ANTI-FIBROTIC PEPTIDES AND THEIR USE IN METHODS FOR TREATING DISEASES AND DISORDERS CHARACTERIZED BY FIBROSIS” (Thrasos Innovation, Inc., priority 2011, published 2016).

The test system of test [1] is p38 MAPK. Description: p38 MAPK phosphorylation in HK-2 cells. The test is classed as cell-based, human. From the text: The significance of p38 MAPK is that this protein is implicated as a non-Smad-dependent pathway for TGF-β-dependent EMT. Other non-Smad-dependent pathways implicated in TGF-β-dependent EMT include RhoA, Ras, PI3 kinase, Notch, and Wnt signaling pathways.
It has been shown that regulation p38 MAPK activity by pro-inflammatory factors has implications in fibrosis.

In test [2] the target is T1, BMPR-II (Homo sapiens, UniProt Q13873).
T1 sequence (Q13873 27-1038): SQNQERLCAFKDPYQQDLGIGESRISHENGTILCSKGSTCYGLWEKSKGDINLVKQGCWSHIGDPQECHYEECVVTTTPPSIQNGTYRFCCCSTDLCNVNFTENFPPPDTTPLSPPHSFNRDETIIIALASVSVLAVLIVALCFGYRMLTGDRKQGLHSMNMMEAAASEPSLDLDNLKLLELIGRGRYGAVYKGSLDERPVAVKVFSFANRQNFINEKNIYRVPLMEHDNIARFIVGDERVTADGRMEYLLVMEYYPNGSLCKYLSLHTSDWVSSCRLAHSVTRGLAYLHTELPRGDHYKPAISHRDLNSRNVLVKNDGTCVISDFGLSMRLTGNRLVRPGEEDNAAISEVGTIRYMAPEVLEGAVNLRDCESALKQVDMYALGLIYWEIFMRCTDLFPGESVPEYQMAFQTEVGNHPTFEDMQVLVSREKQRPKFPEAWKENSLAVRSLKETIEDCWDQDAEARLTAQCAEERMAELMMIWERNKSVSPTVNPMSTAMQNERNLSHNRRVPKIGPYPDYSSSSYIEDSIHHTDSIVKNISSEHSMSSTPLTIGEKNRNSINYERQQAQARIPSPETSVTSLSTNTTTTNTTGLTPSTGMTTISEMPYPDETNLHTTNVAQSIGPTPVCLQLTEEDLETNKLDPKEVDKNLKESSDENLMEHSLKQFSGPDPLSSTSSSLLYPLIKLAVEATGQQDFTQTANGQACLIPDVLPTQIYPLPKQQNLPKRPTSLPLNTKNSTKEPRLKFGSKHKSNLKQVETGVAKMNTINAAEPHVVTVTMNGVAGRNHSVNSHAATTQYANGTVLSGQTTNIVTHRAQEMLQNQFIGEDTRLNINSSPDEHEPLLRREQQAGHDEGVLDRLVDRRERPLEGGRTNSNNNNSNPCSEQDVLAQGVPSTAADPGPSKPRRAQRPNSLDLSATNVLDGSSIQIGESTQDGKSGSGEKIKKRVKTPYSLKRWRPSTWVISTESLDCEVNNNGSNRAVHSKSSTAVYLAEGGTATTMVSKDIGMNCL
Description: BMP type II receptor binding. The source says: FIG. 31 provides a table indicating a comparison between THR-123 (SEQ ID NO: 1) and BMP-7 for binding to Type I and Type II BMP receptors. Like BMP-7, THR-123 binds to both ALK2 and ALK3 (type I) and BMPR-II (type II) BMP receptors. However, BMP-7, but not THR-123 binds to ALK6 (type I) receptor.

In test [3] the test system is COL4A3−/− mice. In words: COL4A3 deficient mice (Alport syndrome model). It is filed as in vivo. From the text: FIG. 64a-FIG. 64N […] inhibits Renal Fibrosis in the COL4A3 Deficient mice. FIG. 64A-FIG. 64C. Representative histological PAS staining of glomeruli from 16 weeks old wild type (FIG. 64A); 16 weeks old COL4A3−/− (FIG. 64B), and 16 weeks old COL4A3−/− mice treated with THR-123 (FIG. 64C), original magnification ×400. D-F. Representative histological Masson's trichrome staining of kidneys from 16 weeks old wild type (FIG. 64D); 16 weeks old COL4A3−/− (FIG. 64E), and 16 weeks old COL4A3−/− mice treated with THR-123 (FIG. 64F), original magnification ×100. FIG. 64G-FIG. 64I. Morphometric analyses from 16 weeks old wild type (n=5), COL4A3−/− (n=5) and COL4A3−/− mice treated with THR-123 (n=5) assessing percent normal glomeruli (FIG. 64G), tubular damage index (FIG. 64H), relative interstitial volume (FIG. 64I). FIG. 64J. Blood urea nitrogen measurement for […] wild type (n=5), 16 weeks old COL4A3−/− (n=5) and COL4A3−/− mice treated with THR-123 (n=5). FIG. 64K-FIG. 64M. FSP1/E-cadherin immunolabeling of kidney. Representative results are shown. FIG. 64N. Percent of E-cadherin/FSP1double positive tubule, 500 tubules per slide, 5 slides per experimental group.
Eight weeks old COL4A3^−/− mice are treated either THR-123 (p.o. 5 mg/Kg/day) or vehicle. COL4A3^−/− mice are sacrificed at 16 weeks of age.
For morphometric analyses of percent normal glomeruli, 100 glomeruli were counted per slide from random fields of view, and five slides were counted per experimental group. The number of normal glomeruli was expressed as a percentage of the total number of glomeruli counted.

Positions of bridges follow the written chain, without caps; N, C: chain ends.

With “(H)-CYFDDSSNVLCKKYRS-(OH) (H-CYFDDSSNVLCKKYRS-OH; disulfide 1-11; SMILES CC(C)C[C@@H]1NC(=O)[C@H](C(C)C)NC(=O)[C@H](CC(N)=O)NC(=O)[C@H](CO)NC(=O)[C@H](CO)NC(=O)[C@H](CC(=O)O)NC(=O)[C@H](CC(=O)O)NC(=O)[C@H](Cc2ccccc2)NC(=O)[C@H](Cc2ccc(O)cc2)NC(=O)[C@@H](N)CSSC[C@@H](C(=O)N[C@@H](CCCCN)C(=O)N[C@@H](CCCCN)C(=O)N[C@@H](Cc2ccc(O)cc2)C(=O)N[C@@H](CCCNC(=N)N)C(=O)N[C@@H](CO)C(=O)O)NC1=O) [SEQ ID NO: 1]”, in test [1] (HK-2 cells), the “TNF alpha induced p38 phosphorylation” value was “effectively inhibited” and the “basal p38 phosphorylation” value is reported as “effectively inhibited”. The “potency on p38 phosphorylation relative to SB 203580” value in test [1] (THR-123 1 uM versus specific inhibitor 10 uM) was “as potent as 10 uM of the specific inhibitor”. In addition, in test [2], the “binding to BMPR-II” value is on record as “binds”. For the same molecule, in test [3] (THR-123 p.o. 5 mg/Kg/day), the “blood urea nitrogen level” value is reported as “significantly improved blood urea nitrogen level”; the “tubular atrophy and interstitial fibrosis” value is “significantly inhibited tubular atrophy and interstitial fibrosis”. Besides, the glomerular abnormalities entry in test [3] (THR-123 p.o. 5 mg/Kg/day, 8 to 16 weeks of age) is given as “did not alter glomerular abnormalities”. Besides, in test [3] (mouse, in vivo), the “acquisition of an EMT program” value is listed as “inhibited such acquisition of an EMT program”, the macrophage infiltration result is listed as “inhibited macrophage infiltration” and the phospho-smad1/5 accumulation entry is on record as “increased accumulation of phospho-smad1/5”.

B1: BMP-7: bone morphogenetic protein-7; recombinant human BMP7, positive control (protein)
chain: STGSKQRSQNRSKTPKNQEALRMANVAENSSSDQRQACKKHELYVSFRDLGWQDWIIAPEGYAAYYCEGECAFPLNSYMNATNHAIVQTLVHFINPETVPKPCCAPTQLNAISVLYFDDSSNVILKKYRNMVVRACGCH
For B1, the “basal p38 phosphorylation” value in test [1] (HK-2 cells) is listed as “inhibited p38 phosphorylation”. Moreover, the “binding to BMPR-II” value in test [2] is on record as “binds”.
